Measurements published in patent US10137171B2, “Methods of treatment using a pentapeptide derived from the C-Terminus of Glucagon-Like Peptide 1 (GLP-1)” (The General Hospital Corporation, priority 2011, dated 2018).
“Also recorded” adds a separate entry of the source. Where no end group is shown, it is not given here.

How the values were obtained:
Assay type in all cases: in vivo, mouse
diet-induced obese mice [1] = assay: Liver triglyceride content
Experimental: FIGS. 6A-B are bar graphs showing that infusions of GLP-1(32-36)amide in mice prevent the accumulation of triglyceride in the livers of mice fed a very high-diet (VHFD). Triglyceride contents of samples of livers of mice fed a high-fat diet (VHFD) for 32 weeks (age 38 weeks). 6A. Triglyceride levels of pentapeptide-infused obese mice as a percent of the vehicle-infused control mice set at 100%. *p<0.005. 6B. Triglyceride content levels of 60.5+/−12.1 mg/mg protein. Infusion of the pentapeptide lowered the triglyceride content by 65% to 21.1+/−5.6 mg/mg protein, indistinguishable from the values in the livers of lean mice fed low-fat chow (21.6+/−7 mg/mg protein). Data from diet-induced obese mice infused with the nonapeptide, GLP-1(28-36)amide for 16 weeks are also shown. Values are represented as % of vehicle control infused mice fed a high-fat diet (VHFD). *p<0.005, peptide vs. vehicle. N=6 mice per group. Values are means+/−SEMs.
Representative samples (2-3 gms) of livers were obtained and quick frozen on solid CO2 at the time of sacrifice and necropsy. The samples were subsequently homogenized and triglycerides were extracted and measured using a colorimetric enzymatic assay (Serum Triglyceride Determination kit, Sigma).

diet-induced obese mice [2] = assay: Metabolic parameters in closed metabolic chambers (TSE PhenoMaster/LabMaster)
Text: FIGS. 4A-C show the results of metabolic measurements of body weights, energy expenditure (VO2), and physical activities of mice during three days of monitoring in TSE-Systems metabolic cages. Mice were 37 weeks old and fed the very high fat diet for 31 weeks at the time of the study. 4A. Line graph showing body weights during three-day monitoring. Vehicle N=2; GLP-1s N=3. # p<0.01; ## p<0.006; ## p<0.008; ## p<0.007. 4B. Bar graph and line graph showing total body oxygen consumption (VO2) measured during both light and dark cycles for the three days of monitoring. Upper panel; Total VO2. Lower panel: Daily time-course of VO2 during light and dark cycles averaged over the three days. Vehicle N=2; GLP-1s N=3. 4C. Bar graph and line graph showing physical activity of the mice during the three days of the metabolic studies. Upper panel: Total activities averaged for light and dark cycles. Lower panel: Time-dependent measurements of activities. Activities were measured for hourly intervals during the light cycle of six hours (13:00 to 18:00) and for two hour intervals during the dark cycle of 12 hours (18:00 to 6:00). […] Vehicle N=2; GLP-1s N=3. The findings support a model of increased basal energy expenditure in mice infused with GLP-1(32-36)amide versus mice infused with control vehicle, independent of endogenous energy expenditure due to physical activity. N=3 mice for pentapeptide infusion and N=2 mice for control vehicle infusion.
FIGS. 4D-G show the results of metabolic measurements of energy expenditure (VO2) of monitoring in TSE-Systems metabolic cages. Mice were 33-34 weeks old and fed the very high fat diet for […] at the time of the study. 4D and 4E. Line graph and bar graph showing total body oxygen consumption (VO2) measured during the light phase during two days. 4F and 4G. Line graph and bar graph showing lean body oxygen consumption (VO2) measured during the light phase during two days.
Mice were single-caged for three days acclimatization and then transferred to single-cage metabolic chambers in a PhenoMaster/LabMaster system (TSE-Systems, Inc., Chesterfield, Mo.) for measurements of oxygen consumption, CO2, physical activity, and food intake during light and dark cycles for a period of 72 hrs.

diet-induced obese mice [3] = assay: Intraperitoneal glucose tolerance test (ipGTT); settings: glucose 2 g/kg BW ip, overnight fasted, VHFD 24 weeks, 16 weeks infusion (FIG. 5C)
Experimental: FIGS. 5C-D are a pair of line graphs Plasma glucose levels (FIG. 5C) and (FIG. 5D) Plasma insulin levels after an intraperitoneal glucose administration ([…] BW ip) in overnight fasted mice fed in VHFD for 24-weeks and 16-weeks of continuous infusions of vehicle or GLP-1(32-36)amide. ***p<4E-03 vehicle vs. GLP-1(32-36)amide, *p<0.01 vehicle vs. GLP-1(32-36)amide, **p<0.004 vehicle vs. GLP-1(32-36)amide, *****p<1.7E-05 vehicle vs. GLP-1(32-36)amide, ****p<6.7 E-04 vehicle vs. GLP-1(32-36)amide.
Mice were maintained in a normal light/dark cycle according to the standard protocols of the MGH Animal Care and Use Committee. Mice were tested with age matched or litter mate controls and 6 mice per group are required. […] The following morning the mice were prepared for the glucose tolerance test: animals were weighed, the tail was nicked with a fresh razor blade by a horizontal cut of the very end, ˜35 to 50 microliters of blood is massaged from the tail to an eppendorf tube which is immediately placed on ice, baseline blood glucose is measured by the glucose oxidase method using a Glucometer Elite glucometer, and 2 grams/kg body weight of 20% D-glucose is drawn up in a Beckton Dickenson D 29 gage ½″ insulin syringe (one unit of D-glucose for every gram of body weight). Animals were then transferred to individually labeled 1000 cc cardboard soup cups with the lid liners removed.
Following animal preparation, glucose was injected into the intraperitoneal cavity. At 10, 20, 30, 60, 120, and 140 minutes blood glucose is sampled from the tail of each mouse by gently massaging a small drop of blood onto the glucometer strip. Glucose injections and blood glucose sampling is timed to take approximately the same amount of time per animal (i.e. 25 animals are injected in 12 minutes and blood glucose sampling of those same 25 animals should also take about 12 minutes) so that the sample times are accurate for each animal.

## LVKGRamide (LVKGR-NH2) [GLP-1(32-36)amide, pentapeptide derived from the C-terminus of the glucoincretin hormone GLP-1]
diet-induced obese mice [1]; VHFD mice (FIG. 6A)
  liver triglyceride as percent of vehicle control set at 100%: 35%
diet-induced obese mice [1]; VHFD mice, pentapeptide infusion (FIG. 6A, 6B)
  liver triglyceride content decrease compared to vehicle: 65%
diet-induced obese mice [1]; VHFD mice, vehicle 60.5+/-12.1, lean low-fat diet mice 21.6+/-7 (FIG. 6B)
  liver triglyceride content: 21.1+/−5.6 mg/mg protein
diet-induced obese mice [2]; VHFD 31 weeks, infusion twelve weeks, vehicle 52 (FIG. 4A)
  body weight during three-day metabolic chamber monitoring: 38 grams
diet-induced obese mice [2]; indirect calorimetric studies
  cumulative food consumption vs vehicle: lower
diet-induced obese mice [2]; light and dark cycles (FIG. 4C)
  physical activity vs vehicle: not significantly different; also recorded: not associated with changes; also recorded: no significant differences
diet-induced obese mice [2]; light cycle and dark cycle (FIG. 4B)
  whole body oxygen consumption (Total VO2) vs vehicle: significantly higher
diet-induced obese mice [2]; light cycle and dark cycle (FIG. 4D, 4E)
  resting oxygen consumption vs vehicle: increase
diet-induced obese mice [3]
  glycemic response in ipGTT: normal
